According to US20090124672A1 (priority 2007, published 2009):

Biological target: T1, hALDH2 (recombinant human mitochondria ALDH) (Homo sapiens, UniProt P05091)
T1 sequence (P05091 18-517): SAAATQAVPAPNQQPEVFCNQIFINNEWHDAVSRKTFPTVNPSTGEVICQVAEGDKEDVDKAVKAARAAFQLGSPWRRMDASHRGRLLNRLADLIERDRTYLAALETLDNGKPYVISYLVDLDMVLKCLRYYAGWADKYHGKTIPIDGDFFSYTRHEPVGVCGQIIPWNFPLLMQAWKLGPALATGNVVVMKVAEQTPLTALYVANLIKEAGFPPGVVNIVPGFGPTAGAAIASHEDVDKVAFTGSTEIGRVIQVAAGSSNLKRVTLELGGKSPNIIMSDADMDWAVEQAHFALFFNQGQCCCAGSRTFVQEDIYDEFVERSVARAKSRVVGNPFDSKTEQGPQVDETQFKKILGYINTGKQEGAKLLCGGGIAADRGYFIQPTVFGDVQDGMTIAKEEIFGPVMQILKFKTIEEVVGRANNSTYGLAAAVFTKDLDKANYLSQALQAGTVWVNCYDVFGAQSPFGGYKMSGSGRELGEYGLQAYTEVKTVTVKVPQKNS
Test: ALDH2 inhibition assay (NADH formation, formaldehyde substrate)
Assay type: biochemical
Conditions: for inhibition at 1 µM: read-out: hALDH2 inhibition (IC50 hALDH2 column)
Method: ALDH2 inhibition assays were performed in sodium phosphate buffer (50 mM, pH 7.4) containing 1.2 mM NAD^+ (Sigma N7004), 1 nM hALDH2 (recombinant human mitochondria ALDH), various concentrations of test compounds (from 0.03 nM to 1000 nM), and 0.15 mM freshly prepared formaldehyde solution (Ladd Research 20295). Reactions were initiated by the addition of formaldehyde and rates were recorded by monitoring NADH formation in a temperature controlled (25° C.) FluoroMax-2 Fluorimeter with excitation and emission wavelengths set at 340 and 460 nm, respectively. […] Normally, IC50 values were determined by fitting concentration-inhibition data to sigmoidal dose-response curves with two-floating parameters: IC50 and Hill coefficient. When tight binding situation was suspected, apparent Ki values were estimated by fitting dose-response data to Morrison's equation [Methods in Enzymology 63, 437-467, 1979].

Molecule	IC50 [nM]	inhibition at 1 µM [%]
O=c1c(-c2ccc(O)cc2)coc2cc(OCc3nc(-c4ccc(Cl)cc4)no3)ccc12 [PT-44, 3-(4-hydroxyphenyl)-7-({3-[4-chlorophenyl](1,2,4-oxadiazol-5-yl)}methoxy)chromen-4-one]	270	
7-{2-[4-(4-chlorophenyl)pyrazolyl]ethoxy}-3-(4-hydroxyphenyl)chromen-4-one [PT-51]	110	
O=c1c(-c2ccc(O)cc2)coc2cc(OCc3nc(-c4cccnc4)no3)ccc12 [PT-114, 3-(4-hydroxyphenyl)-7-[(3-(3-pyridyl)(1,2,4-oxadiazol-5-yl))methoxy]chromen-4-one]	32	
O=C(COc1ccc2c(=O)c(-c3ccc(O)cc3)coc2c1)c1cccc(F)c1 [PT-78, 7-[2-(3-fluorophenyl)-2-oxoethoxy]-3-(4-hydroxyphenyl)chromen-4-one]	139	
O=c1c(-c2ccc(O)cc2)coc2cc(OCc3coc(-c4ccc(F)cc4)n3)ccc12 [PT-16, 7-{[2-(4-fluorophenyl)(1,3-oxazol-4-yl)]methoxy}-3-(4-hydroxyphenyl)chromen-4-one]	47	
NC(=O)c1ccc(-c2coc3cc(OCc4noc(-c5cc(F)cc(C(F)(F)F)c5)n4)ccc3c2=O)cc1 [PT-72, 4-[7-({5-[3-fluoro-5-(trifluoromethyl)phenyl](1,2,4-oxadiazol-3-yl)}methoxy)-4-oxochromen-3-yl]benzamide]		14
O=C(O)c1ccc(COc2ccc3c(=O)c(-c4ccc(O)cc4)coc3c2)cc1 [PT-36, 4-{[3-(4-hydroxyphenyl)-4-oxochromen-7-yloxy]methyl}benzoic acid]	170	
N#Cc1cc(-c2coc3cc(OCc4noc(-c5cc(F)cc(C(F)(F)F)c5)n4)ccc3c2=O)ccc1F [PT-9, 2-fluoro-5-[7-({5-[5-fluoro-3-(trifluoromethyl)phenyl](1,2,4-oxadiazol-3-yl)}methoxy)-4-oxochromen-3-yl]benzenecarbonitrile]		24
O=c1c(-c2ccc3[nH]ncc3c2)coc2cc(OCc3noc(-c4cc(F)cc(C(F)(F)F)c4)n3)ccc12 [PT-86, 3-(1H-indazol-5-yl)-7-({5-[5-fluoro-3-(trifluoromethyl)phenyl](1,2,4-oxadiazol-3-yl)}methoxy)chromen-4-one]		68
Nc1cccc(-c2nnc(COc3ccc4c(=O)c(-c5ccc(O)cc5)coc4c3)o2)c1 [PT-121, 7-{[5-(3-aminophenyl)(1,3,4-oxadiazol-2-yl)]methoxy}-3-(4-hydroxyphenyl)chromen-4-one]	11	
O=c1c(-c2ccc(O)cc2)coc2cc(OCc3noc(-c4cc(F)cc(C(F)(F)F)c4)n3)ccc12 [PT-29, 7-({5-[3-fluoro-5-(trifluoromethyl)phenyl](1,2,4-oxadiazol-3-yl)}methoxy)-3-(4-hydroxyphenyl)chromen-4-one]	10	
CCOC(=O)c1cccc(-c2coc3cc(OCc4noc(-c5cc(F)cc(C(F)(F)F)c5)n4)ccc3c2=O)c1 [PT-3, ethyl 3-[7-({5-[3-fluoro-5-(trifluoromethyl)phenyl](1,2,4-oxadiazol-3-yl)}methoxy)-4-oxochromen-3-yl]benzoate]		22
CS(=O)(=O)Nc1ccc(-c2coc3cc(OCc4nnc(-c5ccc(F)cc5)o4)ccc3c2=O)cc1 [PT-120, 7-{[5-(4-fluorophenyl)(1,3,4-oxadiazol-2-yl)]methoxy}-3-{4-[(methylsulfonyl)amino]-phenyl}chromen-4-one]	276	
COc1ccc2c(COc3ccc4c(=O)c(-c5ccc(O)cc5)coc4c3)cc(=O)oc2c1 [PT-119, 4-{[3-(4-hydroxyphenyl)-4-oxochromen-7-yloxy]methyl}-7-methoxychromen-2-one]	68	
N#Cc1ccc(-c2coc3cc(OCc4noc(-c5cc(F)cc(C(F)(F)F)c5)n4)ccc3c2=O)cc1 [PT-1, 4-[7-({5-[3-fluoro-5-(trifluoromethyl)phenyl](1,2,4-oxadiazol-3-yl)}methoxy)-4-oxochromen-3-yl]benzenecarbonitrile]		17
O=c1c(-c2ccc(O)cc2)coc2cc(OCNCc3cccc(C(F)(F)F)c3)ccc12 [PT-54, 3-(4-hydroxyphenyl)-7-[({[3-(trifluoromethyl)phenyl]methyl}amino)methoxy]chromen-4-one]	5	
O=c1c(-c2ccc(O)cc2)coc2cc(OCc3coc(-c4cc(F)cc(F)c4)n3)ccc12 [PT-14, 7-{[2-(3,5-difluorophenyl)(1,3-oxazol-4-yl)]methoxy}-3-(4-hydroxyphenyl)chromen-4-one]	60	
O=c1c(-c2ccc(O)cc2)coc2cc(OCc3noc(-c4cc(C(F)(F)F)ccc4C(F)(F)F)n3)ccc12 [PT-31, 7-({5-[2,5-bis(trifluoromethyl)phenyl](1,2,4-oxadiazol-3-yl)}methoxy)-3-(4-hydroxyphenyl)chromen-4-one]	20	
CC(C)OC(=O)c1cccc(COc2ccc3c(=O)c(-c4ccc(O)cc4)coc3c2)c1 [PT-35, methylethyl 3-{[3-(4-hydroxyphenyl)-4-oxochromen-7-yloxy]methyl}benzoate]	20	
C=CCOC(=O)c1cccc(-c2nc(COc3ccc4c(=O)c(-c5ccc(O)cc5)coc4c3)no2)c1 [PT-32, prop-2-enyl 3-(3-{[3-(4-hydroxyphenyl)-4-oxochromen-7-yloxy]methyl}-1,2,4-oxadiazol-5-yl)benzoate]	1150	
O=c1c(-c2ccc(O)cc2)coc2cc(OCc3coc(-c4cccc(C(F)(F)F)c4)n3)ccc12 [PT-12, 3-(4-hydroxyphenyl)-7-({2-[3-(trifluoromethyl)phenyl](1,3-oxazol-4-yl)}methoxy)chromen-4-one]	3	
COC(=O)c1cccc(COc2ccc3c(=O)c(-c4ccc(OC)nc4)coc3c2)c1 [PT-6, methyl 3-{[3-(6-methoxy(3-pyridyl))-4-oxochromen-7-yloxy]methyl}benzoate]		16
O=C(O)c1cccc(-c2nc(COc3ccc4c(=O)c(-c5ccc(O)cc5)coc4c3)no2)c1 [PT-41, 3-(3-{[3-(4-hydroxyphenyl)-4-oxochromen-7-yloxy]methyl}-1,2,4-oxadiazol-5-yl)benzoic acid]	10	
O=c1c(-c2ccc(O)cc2)coc2cc(OCc3cccc(C(F)(F)F)c3)ccc12 [PT-26, 3-(4-hydroxyphenyl)-7-{[3-(trifluoromethyl)phenyl]methoxy}chromen-4-one]	34	
O=C(COc1ccc2c(=O)c(-c3ccc(O)cc3)coc2c1)c1ccccc1C(F)(F)F [PT-85, 3-(4-hydroxyphenyl)-7-{2-oxo-2-[2-(trifluoromethyl)phenyl]ethoxy}chromen-4-one]	70	
O=c1c(-c2ccc(O)cc2)coc2cc(OCc3coc(-c4ccc(Cl)cc4)n3)ccc12 [PT-17, 7-{[2-(4-chlorophenyl)(1,3-oxazol-4-yl)]methoxy}-3-(4-hydroxyphenyl)chromen-4-one]	573	
N#Cc1cccc(-c2nc(COc3ccc4c(=O)c(-c5ccc(O)cc5)coc4c3)no2)c1 [PT-40, 3-(3-{[3-(4-hydroxyphenyl)-4-oxochromen-7-yloxy]methyl}-1,2,4-oxadiazol-5-yl)benzenecarbonitrile]	22	
O=c1c(-c2ccc(O)cc2)coc2cc(OCc3noc(-c4cccc(F)c4)n3)ccc12 [PT-42, 7-{[5-(3-fluorophenyl)(1,2,4-oxadiazol-3-yl)]methoxy}-3-(4-hydroxyphenyl)chromen-4-one]	62	
